Reference: patent publication US20100298299A1, “NON-PEPTIDE DERIVATIVES AS BRADYKININ B1 ANTAGONISTS” (priority 2007, published 2010)

Key:
[1] = biological target: T1, recombinant human B1 receptors (Homo sapiens, UniProt P46663); experiment: Functional assay: antagonist potency by cytosolic calcium measurement in CHO-B1 cells; type: cell-based; conditions: CHO-B1 cells, inhibition of LysDABK (EC80)-evoked [Ca2+]i elevation; read-out: B1 func.
T1 construct: host or cells: CHO (CHO-B1)
T1 sequence (P46663 1-353): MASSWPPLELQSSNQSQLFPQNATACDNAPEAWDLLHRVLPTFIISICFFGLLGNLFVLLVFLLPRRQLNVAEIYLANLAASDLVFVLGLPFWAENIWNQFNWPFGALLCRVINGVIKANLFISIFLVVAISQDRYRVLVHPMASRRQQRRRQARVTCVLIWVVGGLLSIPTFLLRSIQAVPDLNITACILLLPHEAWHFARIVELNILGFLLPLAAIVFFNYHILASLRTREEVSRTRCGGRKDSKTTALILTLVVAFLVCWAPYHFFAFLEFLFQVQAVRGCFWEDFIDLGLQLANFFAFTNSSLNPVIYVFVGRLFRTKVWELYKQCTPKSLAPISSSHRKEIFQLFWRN
Protocol: Assessment of Antagonist Potency at B1 and B2 Receptors In Vitro by Measurement of Cytosolic Calcium Ion Concentration with a Plate Reader Fluorimeter in Cells Expressing Recombinant Human B1 or B2 Receptors
Chinese hamster ovary (CHO) cells stably expressing recombinant human B1 (CHO-B1, Euroscreen) or B2 (CHO-B2, Perkin-Elmer) receptors were cultured in Dulbecco's Modified Eagle's Medium (DMEM) containing 10% Fetal Calf Serum (FCS), 100 U/ml penicillin, 0.1 mg/ml streptomycin, 0.25 μg/ml amphotericin B, 1% Minimum Essential Medium Eagle (MEM), non essential amino acid solution, 600 μg/ml G418, 1% pyruvate (for the B2 cell line). Cells were kept at 37° C. in a humidified incubator in an atmosphere of 5% CO2/95% air and were passaged 1:4 three times a week. Cells were plated at 1.5−2.5×10^4 cell/well on standard 96-well microplates, measurements of cytosolic calcium ion concentration ([Ca^2+]i) were carried out 1-2 days after cell plating.
Measurements of [Ca^2+]i were carried out on CHO-B1 and CHO-B2 cells stably expressing human B1 and B2 receptors, respectively. Cells were grown in standard 96-well microplates and before the measurement were loaded with a fluorescent Ca^2+-sensitive dye, fluo-4/AM (2 μM): after removing the culture medium the dye was added to the cells (dissolved in assay buffer: 145 mM NaCl, 5 mM KCl, 2 mM MgCl2, 2 mM CaCl2, 10 mM HEPES, 20 mM D-glucose, 2 mM probenecid, 100 μl/well) and cells were incubated at 37° C. in a humidified incubator in an atmosphere of 5% CO2/95% air for 40-120 min. To stop dye loading cells were washed twice with assay buffer. After washing, various concentrations of the test compounds (diluted in extracellular medium from a DMSO stock solution, final DMSO concentration was <0.1%) or buffer were added to each well depending on the experimental setup. After incubation at 37° C. for 20-25 min. baseline and agonist-evoked changes of [Ca^2+]i were measured column by column with a plate reader fluorimeter (Fluoroskan Ascent, Labsystems). Excitation and detection of emission was carried out from the bottom of the plate. Filters used for Fluo-4: excitation filter—485 nm, emission filter—538 nm. The whole measurement process was performed at 37° C. and was controlled by custom software. Inhibitory potency of the test compounds was assessed by measuring the reduction in the agonist-evoked [Ca^2+]i-elevation in the presence of different concentrations of the compounds. The agonists were LysDABK for CHO-B1, and bradykinin for CHO-B2 cells. Agonists were applied at an EC80 concentration, the EC80-values were derived from daily determined dose-response curves. Fluorescence data were expressed as ΔF/F (fluorescence change normalized to baseline). All treatments on a single plate were measured in multiple wells. Data from all wells with the same treatment were averaged and the average values were used for analysis. Inhibitory potency of a compound at a single concentration point was expressed as percent inhibition of the control agonist response. Sigmoidal concentration-inhibition curves were fitted to the data (derived from at least three independent experiments) and IC50-values were determined as the concentration that produces half of the maximal inhibition caused by the compound.

[2] = biological target: T2, human recombinant bradykinin B1 receptor (Homo sapiens, UniProt P46663); experiment: Human recombinant bradykinin B1 receptor binding; conditions: CHO cell membranes, [3H]-[Des-Arg10] Kallidin radioligand; read-out: B1 binding
T2 construct: purchased Euroscreen ES-091; host or cells: CHO cells
T2 sequence (P46663 1-353): T1 sequence (P46663 1-353)
Protocol: 1. Human Recombinant Bradykinin B1 Receptor Binding
Binding assays were carried out on human recombinant bradykinin) receptors (expressed in CHO cells) according to the Euroscreen Technical Data Sheet (Cat. No.: ES-091). 20 μg protein/tube was incubated with [3,4-prolyl-3,4-^3H(N)]-[Des-Arg^10] Kallidin as radioligand. Non specific binding was determined in the presence of 10 μM Lys-des-Arg^9-Bradykinin. The final incubation volume was 250 μl. Samples were incubated for 15 min. at 25° C. then were rapidly vacuum filtered through GF/B filters presoaked for at least 1 h in 0.5% PEI. Radioactivity was determined by liquid scintillation spectroscopy.

| SMILES | IC50 [1] [µM] | Ki [2] [µM] |
| --- | --- | --- |
| C[C@@H](NC(=O)c1ccc(S(=O)(=O)Nc2ccccc2Oc2ccccc2)cc1)C(=O)N1CCC(CCN2CCCC2)CC1 [Example 1, (R)—N-{1-Methyl-2-oxo-2-[4-(2-pyrrolidin-1-yl-ethyl)-piperidin-1-yl]-ethyl}-4-(2-phenoxy-phenylsulfamoyl)-benzamide] | < 0.02 | < 0.02 |
| O=C(NCC(=O)N1CCC(CCN2CCCC2)CC1)c1ccc(S(=O)(=O)Nc2ccccc2Sc2ccccc2)cc1 [Example 2, N-{2-oxo-2-[4-(2-pyrrolidin-1-yl-ethyl)-piperidin-1-yl]-ethyl}-4-(2-phenylsulfanyl-Phenylsulfamoyl)-benzamide] | < 0.02 | < 0.02 |
| O=C(NCC(=O)N1CCC(N2CCCC2)CC1)c1ccc(S(=O)(=O)Nc2ccccc2Sc2ccccc2)cc1 [Example 3, N-[2-Oxo-2-(4-pyrrolidin-1-yl-piperidin-1-yl)-ethyl]-4-(2-phenylsulfanyl-phenylsulfamoyl)-benzamide] | < 0.02 | < 0.02 |
| CN(C)CCN1CCN(C(=O)CNC(=O)c2ccc(S(=O)(=O)Nc3ccccc3Sc3ccccc3)cc2)CC1 [Example 4, N-{2-[4-(2-Dimethylamino-ethyl)-piperazin-1-yl]-2-oxo-ethyl}-4-(2-phenylsulfanyl-phenylsulfamoyl)-benzamide] | 0.02 to 0.1 | 0.02 to 0.1 |
| O=C(NCC(=O)N1CCN(CCCN2CCCC2)CC1)c1ccc(S(=O)(=O)Nc2ccccc2Sc2ccccc2)cc1 [Example 5, N-{2-Oxo-2-[4-(3-pyrrolidin-1-yl-propyl)-piperazin-1-yl]-ethyl}-4-(2-phenylsulfanyl-phenylsulfamoyl)-benzamide] | 0.02 to 0.1 | 0.02 to 0.1 |
| CN(C)CCCN1CCN(C(=O)CNC(=O)c2ccc(S(=O)(=O)Nc3ccccc3Sc3ccccc3)cc2)CC1 [Example 6, N-{2-[4-(3-Dimethylamino-propyl)-piperazin-1-yl]-2-oxo-ethyl}-4-(2-phenylsulfanyl-phenylsulfamoyl)-benzamide] | 0.02 to 0.1 | 0.02 to 0.1 |
| O=C(NCC(=O)N1CCCN(CCCN2CCCC2)CC1)c1ccc(S(=O)(=O)Nc2ccccc2Sc2ccccc2)cc1 [Example 7, N-{2-Oxo-2-[4-(3-pyrrolidin-1-yl-propyl)-[1,4]diazepan-1-yl]-ethyl}-4-(2-phenylsulfanyl-phenylsulfamoyl)-benzamide] | 0.02 to 0.1 | 0.02 to 0.1 |
| CN1CCCC(CN2CCN(C(=O)CNC(=O)c3ccc(S(=O)(=O)Nc4ccccc4Sc4ccccc4)cc3)CC2)C1 (centres unmarked) [Example 8, N-{2-[4-(1-Methyl-piperidin-3-ylmethyl)-piperazin-1-yl]-2-oxo-ethyl}-4-(2-phenylsulfanyl-phenylsulfamoyl)-benzamide] | 0.02 to 0.1 | 0.02 to 0.1 |
| O=C(NCC(=O)N1CCN(CCN2CCOCC2)CC1)c1ccc(S(=O)(=O)Nc2ccccc2Sc2ccccc2)cc1 [Example 9, N-{2-[4-(2-Morpholin-4-yl-ethyl)-piperazin-1-yl]-2-oxo-ethyl}-4-(2-phenylsulfanyl-phenylsulfamoyl)-benzamide] | 0.02 to 0.1 | 0.02 to 0.1 |
| C[C@H](NC(=O)c1ccc(S(=O)(=O)Nc2ccccc2Oc2ccccc2)cc1)C(=O)N1CCC(CCN2CCCC2)CC1 [Example 26, (S)—N-{1-Methyl-2-oxo-2-[4-(2-pyrrolidin-1-yl-ethyl)-piperidin-1-yl]-ethyl}-4-(2-phenoxy-phenylsulfamoyl)-benzamide] | < 0.02 | < 0.02 |
| O=C(N[C@H](CO)C(=O)N1CCC(CCN2CCCC2)CC1)c1ccc(S(=O)(=O)Nc2ccccc2Oc2ccccc2)cc1 [Example 27, (R)—N-{1-Hydroxymethyl-2-oxo-2-[4-(2-pyrrolidin-1-yl-ethyl)-piperidin-1-yl]-ethyl}-4-(2-phenoxy-phenylsulfamoyl)-benzamide] | < 0.02 | < 0.02 |
| O=C(N[C@H](Cc1ccc(O)cc1)C(=O)N1CCC(O)CC1)c1ccc(S(=O)(=O)Nc2ccccc2Oc2ccccc2)cc1 [Example 29, (R)—N-[1-(4-Hydroxy-benzyl)-2-(4-hydroxy-piperidin-1-yl)-2-oxo-ethyl]-4-(2-phenoxy-phenylsulfamoyl)-benzamide] | < 0.02 | < 0.02 |
| O=C(N[C@H](Cc1ccc(O)cc1)C(=O)N1CCC(CO)CC1)c1ccc(S(=O)(=O)Nc2ccccc2Oc2ccccc2)cc1 [Example 30, (R)—N-[1-(4-Hydroxy-benzyl)-2-(4-hydroxymethyl-piperidin-1-yl)-2-oxo-ethyl]-4-(2-phenoxy-phenylsulfamoyl)-benzamide] | < 0.02 | < 0.02 |
| O=C(N[C@H](Cc1ccc(O)cc1)C(=O)N1CCC(CCN2CCCC2)CC1)c1ccc(S(=O)(=O)Nc2ccccc2Oc2ccccc2)cc1 [Example 31, (R)—N-{1-(4-Hydroxy-benzyl)-2-oxo-2-[4-(2-pyrrolidin-1-yl-ethyl)-piperidin-1-yl]-ethyl}-4-(2-phenoxy-phenylsulfamoyl)-benzamide] | < 0.02 | < 0.02 |
| O=C(N[C@@H](Cc1ccc(O)cc1)C(=O)N1CCC(CCN2CCCC2)CC1)c1ccc(S(=O)(=O)Nc2ccccc2Oc2ccccc2)cc1 [Example 32, (S)—N-{1-(4-Hydroxy-benzyl)-2-oxo-2-[4-(2-pyrrolidin-1-yl-ethyl)-piperidin-1-yl]-ethyl}-4-(2-phenoxy-phenylsulfamoyl)-benzamide] | < 0.02 | < 0.02 |
| O=C(N[C@@H](Cc1ccc(O)cc1)C(=O)N1CCC(N2CCCC2)CC1)c1ccc(S(=O)(=O)Nc2ccccc2Oc2ccccc2)cc1 [Example 33, (S)—N-[1-(4-Hydroxy-benzyl)-2-oxo-2-(4-pyrrolidin-1-yl-piperidin-1-yl)-ethyl]-4-(2-phenoxy-phenylsulfamoyl)-benzamide] | < 0.02 | < 0.02 |
| O=C(N[C@@H](Cc1ccc(O)cc1)C(=O)N1CCC(O)CC1)c1ccc(S(=O)(=O)Nc2ccccc2Oc2ccccc2)cc1 [Example 34, (S)—N-[1-(4-Hydroxy-benzyl)-2-(4-hydroxy-piperidin-1-yl)-2-oxo-ethyl]-4-(2-phenoxy-phenylsulfamoyl)-benzamide] | < 0.02 | < 0.02 |
| O=C(N[C@@H](Cc1ccc(O)cc1)C(=O)N1CCC(CCO)CC1)c1ccc(S(=O)(=O)Nc2ccccc2Oc2ccccc2)cc1 [Example 35, (S)—N-{1-(4-Hydroxy-benzyl)-2-[4-(2-hydroxy-ethyl)-piperidin-1-yl]-2-oxo-ethyl}-4-(2-phenoxy-phenylsulfamoyl)-benzamide] | < 0.02 | < 0.02 |
| CN1CCC(N2CCN(C(=O)[C@H](Cc3ccc(O)cc3)NC(=O)c3ccc(S(=O)(=O)Nc4ccccc4Oc4ccccc4)cc3)CC2)CC1 [Example 37, (S)—N-{1-(4-Hydroxy-benzyl)-2-[4-(1-methyl-piperidin-4-yl)-piperazin-1-yl]-2-oxo-ethyl}-4-(2-phenoxy-phenylsulfamoyl)-benzamide] | < 0.02 | < 0.02 |
